System: 485176-168-R4-J1-PDC spheroids with HUVEC/MSC, viability
Assay: Anticancer human tumor 485176-168-R4-J1-PDC patient-derived pancreatic adenocarcinoma cell line growth inhibition [GQUAD]
Conditions: for IC50: curve of first compound; for viability, T/C: stronger effect = lower value
Summary of the method: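 Multi-cell-type spheroids of tumor cells with HUVEC and mesenchymal stem cells, treated with drug combinations. Concentrations descend in half-log steps from near clinical Cmax, or from 10 microM where Cmax is unknown; viability read-out.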

[1] = second compound 0.0316 µM, first compound 0.0316 µM
[2] = second compound 0.0316 µM, first compound 0.1 µM
[3] = second compound 0.0316 µM, first compound 0.316 µM
[4] = second compound 0.0316 µM, first compound 1 µM
[5] = second compound 0.0316 µM, first compound 3.16 µM
[6] = second compound 0.0316 µM, first compound 10 µM
[7] = second compound 0.1 µM, first compound 0.0316 µM
[8] = second compound 0.1 µM, first compound 0.1 µM
[9] = second compound 0.1 µM, first compound 0.316 µM
[10] = second compound 0.1 µM, first compound 1 µM
[11] = second compound 0.1 µM, first compound 3.16 µM
[12] = second compound 0.1 µM, first compound 10 µM
[13] = second compound 0.316 µM, first compound 0.0316 µM
[14] = second compound 0.316 µM, first compound 0.1 µM
[15] = second compound 0.316 µM, first compound 0.316 µM
[16] = second compound 0.316 µM, first compound 1 µM
[17] = second compound 0.316 µM, first compound 3.16 µM
[18] = second compound 0.316 µM, first compound 10 µM
[19] = second compound 1 µM, first compound 0.0316 µM
[20] = second compound 1 µM, first compound 0.1 µM
[21] = second compound 1 µM, first compound 0.316 µM
[22] = second compound 1 µM, first compound 1 µM
[23] = second compound 1 µM, first compound 3.16 µM
[24] = second compound 1 µM, first compound 10 µM
[25] = second compound 3.16 µM, first compound 0.0316 µM
[26] = second compound 3.16 µM, first compound 0.1 µM
[27] = second compound 3.16 µM, first compound 0.316 µM
[28] = second compound 3.16 µM, first compound 1 µM
[29] = second compound 3.16 µM, first compound 3.16 µM
[30] = second compound 3.16 µM, first compound 10 µM
[31] = second compound 10 µM, first compound 0.0316 µM
[32] = second compound 10 µM, first compound 0.1 µM
[33] = second compound 10 µM, first compound 0.316 µM
[34] = second compound 10 µM, first compound 1 µM
[35] = second compound 10 µM, first compound 3.16 µM
[36] = second compound 10 µM, first compound 10 µM
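Further: spheroids exposed to compounds for seven days before readout.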
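Wherever viability, T/C is given: percent viability relative to DMSO vehicle control wells as 100%.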

Structure (SMILES): C=CCn1c(=O)c2cnc(Nc3ccc(N4CCN(C)CC4)cc3)nc2n1-c1cccc(C(C)(C)O)n1 + Cc1[nH]c2ccc(F)cc2c1-c1nc2c3cccnc3c3ncccc3c2[nH]1
- IC50 (second compound 0.0316 µM): 401 nM
- IC50 (second compound 0.1 µM): 386 nM
- IC50 (second compound 0.316 µM): 469 nM
- IC50 (second compound 1 µM): 468 nM
- IC50 (second compound 3.16 µM): 360 nM
- IC50 (second compound 10 µM): 309 nM
- viability, T/C [1]: 103%
- viability, T/C [2]: 96.9%
- viability, T/C [3]: 55.1%
- viability, T/C [4]: 22.6%
- viability, T/C [5]: 7.84%
- viability, T/C [6]: 3.33%
- viability, T/C [7]: 105%
- viability, T/C [8]: 82.8%
- viability, T/C [9]: 60.2%
- viability, T/C [10]: 20%
- viability, T/C [11]: 7.9%
- viability, T/C [12]: 4.23%
- viability, T/C [13]: 98.2%
- viability, T/C [14]: 81.1%
- viability, T/C [15]: 65.8%
- viability, T/C [16]: 25%
- viability, T/C [17]: 6.26%
- viability, T/C [18]: 4.73%
- viability, T/C [19]: 115%
- viability, T/C [20]: 94.4%
- viability, T/C [21]: 66.7%
- viability, T/C [22]: 22%
- viability, T/C [23]: 7.76%
- viability, T/C [24]: 4.28%
- viability, T/C [25]: 114%
- viability, T/C [26]: 75.1%
- viability, T/C [27]: 63.7%
- viability, T/C [28]: 23.2%
- viability, T/C [29]: 6.68%
- viability, T/C [30]: 4.03%
- viability, T/C [31]: 101%
- viability, T/C [32]: 82.4%
- viability, T/C [33]: 50.1%
- viability, T/C [34]: 18.9%
- viability, T/C [35]: 5.54%
- viability, T/C [36]: 3.76%

Structure (SMILES): CC(C)(O)C1CCC(Nc2ccc3ncc(-c4cccc(C(F)(F)F)c4)n3n2)CC1 (stereo not drawn) + Cc1[nH]c2ccc(F)cc2c1-c1nc2c3cccnc3c3ncccc3c2[nH]1
- IC50 (second compound 0.0316 µM): > 10000 nM
- IC50 (second compound 0.1 µM): > 10000 nM
- IC50 (second compound 0.316 µM): 8530 nM
- IC50 (second compound 1 µM): 2590 nM
- IC50 (second compound 3.16 µM): 2760 nM
- IC50 (second compound 10 µM): 2560 nM
- viability, T/C [1]: 80.2%
- viability, T/C [2]: 110%
- viability, T/C [3]: 84.5%
- viability, T/C [4]: 81.3%
- viability, T/C [5]: 57.7%
- viability, T/C [6]: 54.7%
- viability, T/C [7]: 93.2%
- viability, T/C [8]: 89.3%
- viability, T/C [9]: 86.8%
- viability, T/C [10]: 88.4%
- viability, T/C [11]: 61%
- viability, T/C [12]: 59.9%
- viability, T/C [13]: 93.6%
- viability, T/C [14]: 100%
- viability, T/C [15]: 86.8%
- viability, T/C [16]: 82.3%
- viability, T/C [17]: 58%
- viability, T/C [18]: 49.1%
- viability, T/C [19]: 82.9%
- viability, T/C [20]: 93.1%
- viability, T/C [21]: 108%
- viability, T/C [22]: 77.6%
- viability, T/C [23]: 47.3%
- viability, T/C [24]: 40.5%
- viability, T/C [25]: 76.9%
- viability, T/C [26]: 83.7%
- viability, T/C [27]: 88.6%
- viability, T/C [28]: 78.6%
- viability, T/C [29]: 46.2%
- viability, T/C [30]: 33.1%
- viability, T/C [31]: 92%
- viability, T/C [32]: 55.6%
- viability, T/C [33]: 70.3%
- viability, T/C [34]: 75.3%
- viability, T/C [35]: 40.3%
- viability, T/C [36]: 29.5%

Structure (SMILES): COc1ncnc(C2CC2)c1-c1ncc2cnn(Cc3ccc(-c4nc(C(F)(F)F)cn4C(C)C)cc3)c2n1 + Cc1[nH]c2ccc(F)cc2c1-c1nc2c3cccnc3c3ncccc3c2[nH]1
- IC50 (second compound 0.0316 µM): > 10000 nM
- IC50 (second compound 0.1 µM): > 10000 nM
- IC50 (second compound 0.316 µM): > 10000 nM
- IC50 (second compound 1 µM): > 10000 nM
- IC50 (second compound 3.16 µM): > 10000 nM
- IC50 (second compound 10 µM): > 10000 nM
- viability, T/C [1]: 118%
- viability, T/C [2]: 81.8%
- viability, T/C [3]: 101%
- viability, T/C [4]: 105%
- viability, T/C [5]: 104%
- viability, T/C [6]: 94.2%
- viability, T/C [7]: 101%
- viability, T/C [8]: 106%
- viability, T/C [9]: 102%
- viability, T/C [10]: 102%
- viability, T/C [11]: 102%
- viability, T/C [12]: 110%
- viability, T/C [13]: 91%
- viability, T/C [14]: 85.4%
- viability, T/C [15]: 107%
- viability, T/C [16]: 92.4%
- viability, T/C [17]: 110%
- viability, T/C [18]: 110%
- viability, T/C [19]: 84.9%
- viability, T/C [20]: 106%
- viability, T/C [21]: 118%
- viability, T/C [22]: 108%
- viability, T/C [23]: 115%
- viability, T/C [24]: 97%
- viability, T/C [25]: 88.4%
- viability, T/C [26]: 90.7%
- viability, T/C [27]: 104%
- viability, T/C [28]: 93.8%
- viability, T/C [29]: 93%
- viability, T/C [30]: 80.5%
- viability, T/C [31]: 90.3%
- viability, T/C [32]: 97%
- viability, T/C [33]: 83.5%
- viability, T/C [34]: 90.9%
- viability, T/C [35]: 96.9%
- viability, T/C [36]: 84.6%

Structure (SMILES): CC(C)n1c(=O)n(C)c2cnc3cc(F)c(-c4ccc(OCCCN5CCCCC5)nc4)cc3c21 + Cc1cnc(CNC(=O)c2c(=O)c3ccc(N4CCCN(C)CC4)nc3n3c2sc2ccccc23)cn1
- IC50 (second compound 0.0316 µM): > 10000 nM
- IC50 (second compound 0.1 µM): < 31.6 nM
- IC50 (second compound 0.316 µM): < 31.6 nM
- IC50 (second compound 1 µM): < 31.6 nM
- IC50 (second compound 3.16 µM): < 31.6 nM
- IC50 (second compound 10 µM): < 31.6 nM
- viability, T/C [1]: 65%
- viability, T/C [2]: 50.2%
- viability, T/C [3]: 63.1%
- viability, T/C [4]: 59.2%
- viability, T/C [5]: 62.2%
- viability, T/C [6]: 61.2%
- viability, T/C [7]: 40.2%
- viability, T/C [8]: 47.4%
- viability, T/C [9]: 35.6%
- viability, T/C [10]: 50%
- viability, T/C [11]: 49.2%
- viability, T/C [12]: 47.5%
- viability, T/C [13]: 39.6%
- viability, T/C [14]: 36%
- viability, T/C [15]: 30.4%
- viability, T/C [16]: 33.5%
- viability, T/C [17]: 34.5%
- viability, T/C [18]: 41.3%
- viability, T/C [19]: 27%
- viability, T/C [20]: 30.2%
- viability, T/C [21]: 34.2%
- viability, T/C [22]: 34.5%
- viability, T/C [23]: 30%
- viability, T/C [24]: 34.7%
- viability, T/C [25]: 36.1%
- viability, T/C [26]: 34.3%
- viability, T/C [27]: 33.5%
- viability, T/C [28]: 34.7%
- viability, T/C [29]: 29.5%
- viability, T/C [30]: 25.6%
- viability, T/C [31]: 27%
- viability, T/C [32]: 27.7%
- viability, T/C [33]: 28.9%
- viability, T/C [34]: 28.2%
- viability, T/C [35]: 25.2%
- viability, T/C [36]: 24.5%
